Each structure is given as a SMILES string.

EC50 data for 31 molecules are collected here from patent US20240336608A1, “IL4I1 INHIBITORS AND METHODS OF USE” (Merck Sharp & Dohme LLC, priority 2023, published 2024).

The assay has as its target T1, recombinant IL4I1 (Homo sapiens, UniProt Q96RQ9).
T1 construct: purchased R&D Systems 5684-AO-020
T1 sequence (Q96RQ9 22-567): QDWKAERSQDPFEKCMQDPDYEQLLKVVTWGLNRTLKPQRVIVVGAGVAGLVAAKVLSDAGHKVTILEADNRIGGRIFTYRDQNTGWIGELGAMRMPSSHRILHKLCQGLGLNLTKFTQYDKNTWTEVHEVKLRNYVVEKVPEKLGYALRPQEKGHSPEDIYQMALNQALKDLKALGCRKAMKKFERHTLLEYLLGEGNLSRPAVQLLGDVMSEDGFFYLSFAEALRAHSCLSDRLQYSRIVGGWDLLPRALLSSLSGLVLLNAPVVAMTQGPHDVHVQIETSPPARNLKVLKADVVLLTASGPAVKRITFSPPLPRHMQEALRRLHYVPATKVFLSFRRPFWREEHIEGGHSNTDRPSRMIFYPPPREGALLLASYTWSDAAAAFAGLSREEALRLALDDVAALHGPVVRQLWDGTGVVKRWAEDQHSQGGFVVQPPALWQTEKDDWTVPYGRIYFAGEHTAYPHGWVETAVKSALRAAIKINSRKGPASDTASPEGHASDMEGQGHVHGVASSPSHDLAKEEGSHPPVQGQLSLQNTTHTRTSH
The experiment in a line: IL4I1 Enzymatic Assay (Amplex Red/HRP coupled detection of H2O2, fluorescence). The class given is biochemical. Particulars: 1 nM recombinant IL4I1; four-hour pre-incubation with compound; 1 mM each Phe, Tyr, Trp; ten-point titration. Here is the method: Interleukin 4 inducible protein 1 (IL4I1) is an L-amino oxidase that catalyzes the oxidation of aromatic residues (Phe, Trp and Tyr): L-amino acid+H2O+O2→2-oxo acid+NH3+H2O2. Equal molar of H2O2 and the corresponding alpha-ketoacid are produced when IL4I1 and substrate are added. In this assay, the hydrogen peroxide generated by IL4I1 is then detected through a coupled reaction with Amplex Red (10-acetyl-3,7-dihydroxyphenoxazine) and […] (HRP) to produce Resorufin product that could be detected in the form of fluorescence signals. The assessment of the inhibitory effect of small molecules (EC50) on IL4I1 is measured by the effectiveness of the compounds to inhibit the production of H202.
Using this assay, the potency (EC50) of each compound was determined from a ten-point (1:3 serial dilution) titration curve using the following outlined procedure. To each well of a black flat-bottom Greiner (Cat #781076) 384 well-plate, 125 nL of compound (0.5% DMSO in final assay volume of 25 μL) was dispensed, followed by the addition of 12.5 μL of 1× assay buffer (50 mM Hepes 7.0 and 0.005% Tween20 (Sigma, Cat #P8341; low peroxide grade)) containing 2 nM of recombinant IL4I1 (R&D Systems, Cat #5684-AO-020). Plates were placed in an ambient temperature humidified chamber for a four-hour pre-incubation with compound. Subsequently, each reaction was initiated by the addition of 12.5 μL 1× assay buffer containing 2 mM of each aromatic amino acids (Phe/Tyr/Trp), 0.1 mM Amplex Red and 2 U/mL of HRP. The final reaction in each well of 25 μL consists of 1 nM of IL4I1, 1 mM of each residue (Phe, Tyr and Trp), 0.05 mM Amplex Red and 1 U/mL of HRP. It should be noted that the concentrations of Amplex Red and HRP used here are in excess such that the conversion of H2O2 to Resorufin product occurs instantaneously and non-rate limiting. Reactions were allowed to proceed for 120 minutes followed by fluorescence readout on a Spectramax with the following set parameters: 544 nm excitation/590 nm emission, 570 nm cutoff (EnVision is an alternative reader). Dose-response curves were generated by plotting percent effect (% inhibition; Y-axis) vs. Log10 compound concentrations (X-axis). EC50 values were calculated using a non-linear regression, four-parameters sigmoidal dose-response model and are shown in Table 16.
For orientation: EC50 means the concentration needed to bring the measured effect to its halfway point. On to `O=C(NCc1nnc(-c2ccccc2)s1)c1csc(Cc2ccccc2)n1` [Example 16, 2-benzyl-N-((5-phenyl-1,3,4-thiadiazol-2-yl)methyl)thiazole-4-carboxamide], for which the EC50 was determined as 0.084 µM.
In the case of `Cc1ccc(C(=O)NCc2nnc(-c3ccccc3)s2)[nH]1` [Example 17, 5-methyl-N-[(5-phenyl-1,3,4-thiadiazol-2-yl)methyl]-1H-pyrrole-2-carboxamide], the EC50 was 0.474 µM.
As for `CCn1ccc(C(=O)NCc2nnc(-c3ccccc3)s2)c1` [Example 18, 1-ethyl-N-[(5-phenyl-1,3,4-thiadiazol-2-yl)methyl]pyrrole-3-carboxamide], the EC50 came to 0.04 µM.
The result for `Cn1cc(C(=O)NCc2nnc(-c3ccccc3)s2)nn1` [Example 19, 1-methyl-N-[(5-phenyl-1,3,4-thiadiazol-2-yl)methyl]triazole-4-carboxamide] reads 0.018 µM.
As for `Cc1c(C(=O)NCc2nnc(-c3ccccc3)s2)oc2cccc(O)c12` [Example 20, 4-hydroxy-3-methyl-N-[(5-phenyl-1,3,4-thiadiazol-2-yl)methyl]benzofuran-2-carboxamide], the figure is 0.34 µM; as for `CC(C)Cc1cc(C(=O)NCc2nnc(-c3ccccc3)s2)[nH]n1` [Example 21, 3-isobutyl-N-((5-phenyl-1,3,4-thiadiazol-2-yl)methyl)-1H-pyrazole-5-carboxamide], 0.209 µM.
As for `O=C(NCc1nnc(-c2ccccc2)s1)c1scc2c1OCCO2` [Example 22, N-[(5-phenyl-1,3,4-thiadiazol-2-yl)methyl]-2,3-dihydrothieno[3,4-b][1,4]dioxine-5-carboxamide], the figure is 0.027 µM; as for `Cc1cc(C(=O)NCc2nnc(-c3ccccc3)s2)no1` [Example 23, 5-methyl-N-[(5-phenyl-1,3,4-thiadiazol-2-yl)methyl]isoxazole-3-carboxamide], 0.207 µM; as for `Cc1onc(C(=O)NCc2nnc(-c3ccccc3)s2)c1C` [Example 24, 4,5-dimethyl-N-[(5-phenyl-1,3,4-thiadiazol-2-yl)methyl]isoxazole-3-carboxamide], 0.093 µM.
For the molecule `Cc1cc(C(=O)NCc2nnc(-c3ccccc3)s2)on1` [Example 25, 3-methyl-N-[(5-phenyl-1,3,4-thiadiazol-2-yl)methyl]isoxazole-5-carboxamide], the EC50 amounted to 0.076 µM.
As for `CC(C)c1cc(C(=O)NCc2nnc(-c3ccccc3)s2)no1` [Example 26, 5-isopropyl-N-[(5-phenyl-1,3,4-thiadiazol-2-yl)methyl]isoxazole-3-carboxamide], the figure is 0.043 µM; as for `Cc1n[nH]c(C(=O)NCc2nnc(-c3ccccc3)s2)n1` [Example 27, 3-methyl-N-((5-phenyl-1,3,4-thiadiazol-2-yl)methyl)-1H-1,2,4-triazole-5-carboxamide], 0.292 µM.
As for `O=C(NCc1nnc(-c2ccccc2)s1)c1cc(C(F)(F)F)n[nH]1` [Example 28, N-[(5-phenyl-1,3,4-thiadiazol-2-yl)methyl]-3-(trifluoromethyl)-1H-pyrazole-5-carboxamide], the figure is 0.71 µM; as for `COc1ccsc1C(=O)NCc1nnc(-c2ccccc2)s1` [Example 29, 3-methoxy-N-[(5-phenyl-1,3,4-thiadiazol-2-yl)methyl]thiophene-2-carboxamide], 0.01 µM.
As to `O=C(NCc1nnc(-c2ccccc2)s1)c1cn([C@@H]2CO[C@H]3[C@@H]2OC[C@H]3O)nn1` [Example 30, 1-((3R,3aR,6R,6aR)-6-hydroxyhexahydrofuro[3,2-b]furan-3-yl)-N-((5-phenyl-1,3,4-thiadiazol-2-yl)methyl)-1H-1,2,3-triazole-4-carboxamide], the concentration giving a half-maximal response (EC50) is 0.13 µM.
The result for `O=C(NCc1nnc(-c2ccccc2)s1)c1n[nH]c(C2CC2)c1F` [Example 31, 5-cyclopropyl-4-fluoro-N-[(5-phenyl-1,3,4-thiadiazol-2-yl)methyl]-1H-pyrazole-3-carboxamide] reads 0.042 µM; that for `Cn1cnc(C(=O)NCc2nnc(-c3ccccc3)s2)c1` [Example 32, 1-methyl-N-((5-phenyl-1,3,4-thiadiazol-2-yl)methyl)-1H-imidazole-4-carboxamide], 0.077 µM.
The result for `O=C(NCc1nnc(-c2ccccc2)s1)c1cc(C2CC2)n[nH]1` [Example 33, 3-cyclopropyl-N-[(5-phenyl-1,3,4-thiadiazol-2-yl)methyl]-1H-pyrazole-5-carboxamide] reads 0.17 µM; that for `O=C(NCc1nnc(-c2ccccc2)s1)c1cc2n(n1)CCSC2` [Example 34, N-[(5-phenyl-1,3,4-thiadiazol-2-yl)methyl]-6,7-dihydro-4H-pyrazolo[5,1-c][1,4]thiazine-2-carboxamide], 0.453 µM.
The result for `O=C(NCc1nnc(-c2ccccc2)s1)c1cc(C2CC2)on1` [Example 35, 5-cyclopropyl-N-[(5-phenyl-1,3,4-thiadiazol-2-yl)methyl]isoxazole-3-carboxamide] reads 0.008 µM; that for `Cc1cc(C(=O)NCc2nnc(-c3ccccc3)s2)c(C)o1` [Example 36, 2,5-dimethyl-N-[(5-phenyl-1,3,4-thiadiazol-2-yl)methyl]furan-3-carboxamide], 0.487 µM; that for `Cc1csc(C(=O)NCc2nnc(-c3ccccc3)s2)c1Cl` [Example 37, 3-chloro-4-methyl-N-[(5-phenyl-1,3,4-thiadiazol-2-yl)methyl]thiophene-2-carboxamide], 0.012 µM.
Regarding `Cc1cc(C(=O)NCc2nnc(-c3ccccc3)s2)oc1C` [Example 38, 4,5-dimethyl-N-[(5-phenyl-1,3,4-thiadiazol-2-yl)methyl]furan-2-carboxamide], the EC50 came out at 0.89 µM.
For `CCCc1cc(C(=O)NCc2nnc(-c3ccccc3)s2)no1` [Example 39, N-[(5-phenyl-1,3,4-thiadiazol-2-yl)methyl]-5-propyl-isoxazole-3-carboxamide], the 50% effective concentration (EC50) stood at 0.003 µM.
The result for `Cc1oc(C)c(C(=O)NCc2nnc(-c3ccccc3)s2)c1C` [Example 40, 2,4,5-trimethyl-N-[(5-phenyl-1,3,4-thiadiazol-2-yl)methyl]furan-3-carboxamide] reads 0.266 µM.
The result for `COc1c(C(=O)NCc2nnc(-c3ccccc3)s2)csc1Cl` [Example 41, 5-chloro-4-methoxy-N-[(5-phenyl-1,3,4-thiadiazol-2-yl)methyl]thiophene-3-carboxamide] reads 0.059 µM.
The result for `Cc1n[nH]c(C(=O)NCc2nnc(-c3ccccc3)s2)c1C` [Example 42, 3,4-dimethyl-N-((5-phenyl-1,3,4-thiadiazol-2-yl)methyl)-1H-pyrazole-5-carboxamide] reads 0.458 µM; that for `CCn1cc(C(=O)NCc2nnc(-c3ccccc3)s2)cn1` [Example 43, 1-ethyl-N-[(5-phenyl-1,3,4-thiadiazol-2-yl)methyl]pyrazole-4-carboxamide], 0.177 µM.
For `O=C(NCc1nnc(-c2ccccc2)s1)c1c[nH]nc1C(F)(F)F` [Example 44, N-[(5-phenyl-1,3,4-thiadiazol-2-yl)methyl]-3-(trifluoromethyl)-1H-pyrazole-4-carboxamide], the EC50 amounted to 0.77 µM.
`COCc1ccc(C(=O)NCc2nnc(-c3ccccc3)s2)o1` [Example 45, 5-(methoxymethyl)-N-[(5-phenyl-1,3,4-thiadiazol-2-yl)methyl]furan-2-carboxamide]: the EC50 amounted to 0.552 µM.
The result for `Cc1[nH]nc(C(=O)NCc2nnc(-c3ccccc3)s2)c1F` [Example 46, 4-fluoro-5-methyl-N-[(5-phenyl-1,3,4-thiadiazol-2-yl)methyl]-1H-pyrazole-3-carboxamide] reads 0.092 µM.
